This note sets out measurements from the NIST ThermoML archive (doi:10.1021/je5001389).

Numbers after ± are expanded uncertainties.

The conditions of data set [1]: DTA.
Data set [2] is described as follows: Molar enthalpy of transition or fusion. The conditions noted are these: DSC.

As to `c1ccc(-c2ccccc2)cc1` [biphenyl], the Triple point temperature in data set [1] (Crystal) is 340.69 ± 0.5 K. Also, in data set [2] (Crystal), the “Molar enthalpy of transition or fusion” value was 4.45 ± 0.136 kcal/mol.

For `c1ccc2c(c1)oc1ccccc12` [dibenzo[bd]furan], the Triple point temperature in data set [1] (Crystal) is 353.87 ± 0.5 K. Moreover, in data set [2] (Crystal), the “Molar enthalpy of transition or fusion” value was 5.33 ± 0.16 kcal/mol.

As for `CCCCCCCCCCCCCCCCCCCCCCCCCC` [hexacosane], the Triple point temperature in data set [1] (Crystal 1) stood at 329.21 ± 0.5 K; in data set [1] (Crystal 2), 326.4 ± 0.5 K. Further, the “Molar enthalpy of transition or fusion” value in data set [2] (Crystal 1) amounted to 16.3 ± 0.43 kcal/mol; in data set [2] (Crystal 2), 8.78 ± 0.239 kcal/mol.
